Experimental data reported in patent publication US8969552B2, “Arylsulfonylmethyl or arylsulfonamide substituted aromatic compounds suitable for treating disorders that respond to modulation of the dopamine D3 receptor” (AbbVie Deutschland GmbH & Co. KG, priority 2004, dated 2015).
Structures can show the parent of a compound that is named as a salt.

Columns and labels:
[1] = target: T1, human dopamine D3 receptors (Homo sapiens, UniProt P35462); assay: Dopamine D3 receptor binding, [125I]-iodosulpride displacement; conditions: for Ki: membranes of HEK-293 cells stably expressing human D3 receptor, 0.1 nM [125I]-iodosulpride, 25° C., 60 minutes; for Ki(D2)*/Ki(D3)*: selectivity ratio of receptor binding constants D2 versus D3
T1 construct: expressed in transfected cells; membranes
Experimental: (§1) The substance to be tested was either dissolved in methanol/Chremophor® (BASF-AG) or in dimethyl sulfoxide and then diluted with water to the desired concentration.
(§2) Each assay mixture was run in triplicate.
The incubation buffer contained 50 mM tris, 120 mM NaCl, 5 mM KCl, 2 mM CaCl2, 2 mM MgCl2 and 0.1% bovine serum albumin, 10 μM quinolone and 0.1% ascorbic acid (prepared fresh daily). The buffer was adjusted to pH 7.4 with HCl.
(§3) Measurement and Analysis:
(§4) After having been incubated at 25° C. for 60 minutes, the assay mixtures were filtered through a Whatman GF/B glass fiber filter under vacuum using a cell collecting device. The filters were transferred to scintillation viols using a filter transfer system. After 4 ml of Ultima Gold® (Packard) have been added, the samples were shaken for one hour and the radioactivity was then counted in a Beta-Counter (Packard, Tricarb 2000 or 2200CA). The cpm values were converted into dpm using a standard quench series and the program belonging to the instrument.
(§5) The inhibition curves were analyzed by means of iterative nonlinear regression analysis using the Statistical Analysis System (SAS) which is similar to the “LIGAND” program described by Munson and Rodbard.
(§6) The results of the receptro binding studies are expressed as receptor binding constants Ki(D2) and Ki(D3), respectively, as herein before described, and given in table 2.

[2] = target: T2, human dopamine D2L receptors (long isoform) (Homo sapiens, UniProt P14416); assay: Dopamine D2L receptor binding, [125I] iodospiperone displacement; conditions: membranes of HEK-293 cells stably expressing human D2L receptor; 0.01 nM [125I] iodospiperone; 25° C., 60 minutes; read-out: Ki(D2)*
T2 construct: expressed in transfected cells; membranes
Experimental: as §1, §2
The incubation buffer contained 50 mM tris, 120 mM NaCl, 5 mM KCl, 2 mM CaCl2, 2 mM MgCl2 and 0.1% bovine serum albumin. The buffer was adjusted to pH 7.4 with HCl.
as §3, §4, §5, §6

T2 sequence (P14416 whole entry, canonical isoform): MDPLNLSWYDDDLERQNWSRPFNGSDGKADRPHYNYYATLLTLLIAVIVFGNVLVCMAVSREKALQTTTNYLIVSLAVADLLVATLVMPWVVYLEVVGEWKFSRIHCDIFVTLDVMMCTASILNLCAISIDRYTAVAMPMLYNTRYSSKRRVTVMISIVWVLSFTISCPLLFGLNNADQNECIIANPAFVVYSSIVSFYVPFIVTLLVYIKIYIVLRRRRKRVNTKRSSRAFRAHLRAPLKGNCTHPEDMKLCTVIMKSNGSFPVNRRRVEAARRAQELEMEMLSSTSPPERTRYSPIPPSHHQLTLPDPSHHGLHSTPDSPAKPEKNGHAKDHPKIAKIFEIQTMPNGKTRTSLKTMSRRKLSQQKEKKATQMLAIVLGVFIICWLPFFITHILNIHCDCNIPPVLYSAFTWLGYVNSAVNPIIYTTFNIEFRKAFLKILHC
T1 sequence (P35462 whole entry): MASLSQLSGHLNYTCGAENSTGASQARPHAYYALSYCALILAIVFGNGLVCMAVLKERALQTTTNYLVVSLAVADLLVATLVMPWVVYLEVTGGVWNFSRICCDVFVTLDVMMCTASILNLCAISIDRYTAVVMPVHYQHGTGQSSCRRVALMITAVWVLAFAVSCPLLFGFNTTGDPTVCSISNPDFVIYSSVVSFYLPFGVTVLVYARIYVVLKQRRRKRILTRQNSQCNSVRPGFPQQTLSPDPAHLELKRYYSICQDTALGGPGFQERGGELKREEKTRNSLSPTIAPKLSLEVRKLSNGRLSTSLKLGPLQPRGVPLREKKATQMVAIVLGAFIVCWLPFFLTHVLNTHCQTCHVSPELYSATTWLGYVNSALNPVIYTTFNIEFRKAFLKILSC

Ki [1] [nM] | Ki(D2)*/Ki(D3)* [1] | Ki [2] [nM] | Structure (SMILES)
1.8 | 95 |  | CCCN[C@H]1CCc2cc(NS(=O)(=O)c3ccc(N(C)C)cc3)ccc2C1.Cl [Example 50, 4-Dimethylamino-N—((S)-6-propylamino-5,6,7,8-tetrahydro-naphthalen-2-yl)benzenesulfonamide, hydrochloride]
1.7 | 56 |  | CCCN[C@H]1CCc2cc(NS(=O)(=O)c3ccc(CCCF)cc3)ccc2C1 [Example 51, 4-(3-Fluoro-propyl)-N—((S)-6-propylamino-5,6,7,8-tetrahydro-naphthalen-2-yl)benzenesulfonamide]
1.7 | 230 |  | CCCN[C@H]1CCc2cc(NS(=O)(=O)c3ccc([C@H](C)CF)cc3)ccc2C1.Cl [Example 55, 4-((S)-2-Fluoro-1-methyl-ethyl)-N—((S)-6-propylamino-5,6,7,8-tetrahydro-naphthalen-2-yl)benzenesulfonamide, hydrochloride]
2.4 | 161 |  | CCCN[C@H]1CCc2cc(NS(=O)(=O)c3ccc([C@@H](C)CF)cc3)ccc2C1.Cl [Example 56, 4-((R)-2-Fluoro-1-methyl-ethyl)-N—((S)-6-propylamino-5,6,7,8-tetrahydro-naphthalen-2-yl)benzenesulfonamide, hydrochloride]
0.15 | 229 |  | CCCN[C@@H]1CCc2cc(NS(=O)(=O)c3ccc(CCCF)cc3)ccc2C1.Cl [Example 58, 4-(3-Fluoro-propyl)-N—((R)-6-propylamino-5,6,7,8-tetrahydro-naphthalen-2-yl)benzenesulfonamide, hydrochloride]
9.4 | 274 |  | CCCN[C@H]1CCc2cc(NS(=O)(=O)c3ccc(C(C)=O)cc3)ccc2C1 [Example 60, 4-Acetyl-N—((S)-6-propylamino-5,6,7,8-tetrahydro-naphthalen-2-yl)-benzenesulfonamide]
30.9 | 40 |  | CCN[C@H]1CCc2cc(NS(=O)(=O)c3ccc(OC(F)(F)F)cc3)ccc2C1.Cl [Example 63, N—((S)-6-Ethylamino-5,6,7,8-tetrahydro-naphthalen-2-yl)-4-trifluoromethoxybenzenesulfonamide, hydrochloride]
3.4 | 70 |  | CCN[C@H]1CCc2cc(NS(=O)(=O)c3ccc(C(C)C)cc3)ccc2C1.Cl [Example 64, N—((S)-6-Ethylamino-5,6,7,8-tetrahydro-naphthalen-2-yl)-4-isopropyl-benzenesulfonamide, hydrochloride]
2 | 42 |  | CC(C)c1ccc(S(=O)(=O)Nc2ccc3c(c2)CC[C@H](NCCCF)C3)cc1.Cl [Example 68, N—[(S)-6-(3-Fluoro-propylamino)-5,6,7,8-tetrahydro-naphthalen-2-yl]-4-isopropylbenzenesulfonamide, hydrochloride]
3.6 | 61 |  | CCN[C@H]1CCc2cc(NS(=O)(=O)c3ccc(N4CCCC4)cc3)ccc2C1.Cl [Example 70, N—((S)-6-Ethylamino-5,6,7,8-tetrahydro-naphthalen-2-yl)-4-pyrrolidin-1-ylbenzenesulfonamide, hydrochloride]
 |  | 250 | CCCN[C@H]1CCc2cc(NS(=O)(=O)c3ccc(OC(F)F)cc3)ccc2C1 [Example 74, 4-Difluoromethoxy-N—((S)-6-propylamino-5,6,7,8-tetrahydro-naphthalen-2-yl)benzenesulfonamide, hydrochloride]

More lines, now with the values behind:

Structure (SMILES) | Ki [1] [nM] | Ki(D2)*/Ki(D3)* [1] | Ki [2] [nM]
CCCN[C@H]1CCc2cc(NS(=O)(=O)c3ccc(C(C)C(F)(F)F)cc3)ccc2C1 (mixture of isomers) [Example 40, N—((S)-6-Propylamino-5,6,7,8-tetrahydro-naphthalen-2-yl)-4-(2,2,2-trifluoro-1-methyl-ethyl)benzenesulfonamide-racemate] | 1.4 | 221 | 309
CCC(=O)N1CCC[C@@H]2Cc3cc(NS(=O)(=O)c4ccc(C(C)C)cc4)ccc3C[C@H]21 (relative stereo) [Example 22, trans-4-Isopropyl-N-(1-propionyl-1,2,3,4,4a,5,10,10a-octahydro-benzo[g]quinolin-7-yl)benzenesulfonamide] | 19 | 96 | 1830
CCCN1CCC[C@@H]2Cc3cc(NS(=O)(=O)c4ccc(C(C)C)cc4)ccc3C[C@H]21 (relative stereo) [Example 23, trans-4-Isopropyl-N-(1-propyl-1,2,3,4,4a,5,10,10a-octahydro-benzo[g]quinolin-7-yl)benzenesulfonamide] | 2.3 | 50 | 116
CCCN[C@@H]1CCc2ccc(NS(=O)(=O)c3ccc(C(C)C)cc3)cc2C1 [Example 2, (R)-4-Isopropyl-N—((R)-7-propylamino-5,6,7,8-tetrahydro-naphthalen-2-yl)benzenesulfonamide] | 14 | 32 | 442
CCCN[C@@H]1CCc2cc(NS(=O)(=O)c3ccc(C(C)C)cc3)ccc2C1 [Example 3, 4-Isopropyl-N—((R)-6-propylamino-5,6,7,8-tetrahydro-naphthalen-2-yl)-benzenesulfonamide] | 0.34 | 30 | 10.3
C=CCN[C@@H]1CCc2cc(NS(=O)(=O)c3ccc(C(C)C)cc3)ccc2C1.Cl [Example 6, N—((R)-6-Allylamino-5,6,7,8-tetrahydro-naphthalen-2-yl)-4-isopropyl-benzenesulfonamide, hydrochloride] | 0.28 | 52 | 14.5
C=CCN[C@H]1CCc2cc(NS(=O)(=O)c3ccc(C(C)C)cc3)ccc2C1.Cl [Example 7, N—((S)-6-Allylamino-5,6,7,8-tetrahydro-naphthalen-2-yl)-4-isopropyl-benzenesulfonamide, hydrochloride] | 1.97 | 77 | 152
CCCN[C@H]1CCc2cc(NS(=O)(=O)c3ccc(C(C)C)cc3)ccc2C1.Cl [Example 8, 4-Isopropyl-N—((S)-6-propylamino-5,6,7,8-tetrahydro-naphthalen-2-yl)-benzenesulfonamide, hydrochloride] | 0.5 | 102 | 50.6
C=CCN[C@H]1CCc2cc(N(C)S(=O)(=O)c3ccc(C(C)C)cc3)ccc2C1 [Example 9, N—((S)-6-Allylamino-5,6,7,8-tetrahydro-naphthalen-2-yl)-4-isopropyl-N-methylbenzenesulfonamide] | 15.3 | 27 | 416
CCCN[C@H]1CCc2cc(N(C)S(=O)(=O)c3ccc(C(C)C)cc3)ccc2C1 [Example 10, 4-Isopropyl-N-methyl-N—((S)-6-propylamino-5,6,7,8-tetrahydro-naphthalen-2-yl)benzenesulfonamide] | 8.2 | 29 | 238
CCCN[C@H]1CCc2cc(NS(=O)(=O)c3ccc(OC(F)F)cc3)ccc2C1.Cl [Example 46, 4-Difluoromethoxy-N—((S)-6-propylamino-5,6,7,8-tetrahydro-naphthalen-2-yl)benzenesulfonamide, hydrochloride] | 2.5 | 100 | 
CCCN[C@H]1CCc2cc(NS(=O)(=O)c3ccc(CC(F)(F)F)cc3)ccc2C1.Cl [Example 47, N—((S)-6-Propylamino-5,6,7,8-tetrahydro-naphthalen-2-yl)-4-(2,2,2-trifluoro-ethyl)benzenesulfonamide, hydrochloride] | 5.1 | 70 | 
CCCN[C@H]1CCc2cc(NS(=O)(=O)c3ccc(C4CC4(F)F)cc3)ccc2C1.Cl (stereo partly drawn) [Example 48, 4-(2,2-Difluoro-cyclopropyl)-N—((S)-6-propylamino-5,6,7,8-tetrahydro-naphthalen-2-yl)benzenesulfonamide, hydrochloride] | 1.5 | 128 | 
CCCN[C@H]1CCc2cc(NS(=O)(=O)c3ccc(N4CCCC4)cc3)ccc2C1.Cl [Example 49, N—((S)-6-Propylamino-5,6,7,8-tetrahydro-naphthalen-2-yl)-4-pyrrolidin-1-ylbenzenesulfonamide, hydrochloride] | 1.3 | 63 | 
CCCN[C@H]1CCc2cc(NS(=O)(=O)c3ccc(CCC)s3)ccc2C1.Cl [Example 52, 5-Propyl-thiophene-sulfonic acid ((S)-6-propylamino-5,6,7,8-tetrahydro-naphthalen-2-yl)amide, hydrochloride] | 0.7 | 71 | 
CCCN[C@H]1CCc2cc(NS(=O)(=O)c3ccc(C(C)(C)F)cc3)ccc2C1.O=C(O)C(F)(F)F [Example 62, 4-(1-Fluoro-1-methyl-ethyl)-N—((S)-6-propylamino-5,6,7,8-tetrahydro-naphthalen-2-yl)benzenesulfonamide, trifluoro acetate] | 6.2 | 77 | 
